The record followed here is ChEMBL document CHEMBL5241054, “Effective anti-aromatase therapy to battle against estrogen-mediated breast cancer: Comparative SAR/QSAR assessment on steroidal aromatase inhibitors” (Eur J Med Chem, 2020).

Molecules are shown by their SMILES.

In the assay the target is T1, Aromatase (Homo sapiens, UniProt P11511).
T1 sequence (P11511 whole entry): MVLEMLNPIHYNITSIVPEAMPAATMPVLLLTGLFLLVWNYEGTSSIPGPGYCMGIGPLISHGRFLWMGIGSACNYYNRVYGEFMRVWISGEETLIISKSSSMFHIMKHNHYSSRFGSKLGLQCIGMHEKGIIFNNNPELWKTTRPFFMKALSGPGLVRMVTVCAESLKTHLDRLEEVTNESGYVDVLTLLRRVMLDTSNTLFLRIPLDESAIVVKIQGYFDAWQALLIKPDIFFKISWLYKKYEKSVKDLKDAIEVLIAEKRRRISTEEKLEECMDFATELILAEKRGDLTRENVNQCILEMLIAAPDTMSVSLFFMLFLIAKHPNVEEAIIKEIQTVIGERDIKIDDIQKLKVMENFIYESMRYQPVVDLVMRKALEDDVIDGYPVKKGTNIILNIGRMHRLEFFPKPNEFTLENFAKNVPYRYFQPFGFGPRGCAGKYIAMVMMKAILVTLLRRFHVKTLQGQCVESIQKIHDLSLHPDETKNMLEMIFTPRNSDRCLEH
As a reminder, the IC50 is the concentration needed to halve the response being measured. Take `CN1N=C2[C@H](C[C@H]3[C@@H]4CCC5=CC(=O)C=C[C@]5(C)[C@H]4CC[C@]23C)[C@H]1c1ccccc1`: the half-inhibitory concentration (IC50) is 2.45 µM.

In turn, `COc1ccc([C@@H]2[C@H]3C[C@H]4[C@@H]5CCC6=CC(=O)C=C[C@]6(C)[C@H]5CC[C@]4(C)C3=NN2C)cc1` gave an IC50 of 2.11 µM.

On to `C[C@]12C=CC(=O)C=C1CC[C@@H]1[C@@H]2CC[C@]2(C)C3=NN(c4ccccc4)[C@H](c4ccccc4)[C@H]3C[C@@H]12`, for which half-maximal inhibition (IC50) required 1.98 µM.

As for `CC(=O)N1N=C2[C@H](C[C@H]3[C@@H]4CC[C@H]5C[C@@H](OC(=O)C(F)(F)F)CC[C@]5(C)[C@H]4CC[C@]23C)[C@H]1c1ccccc1`, it took 6.58 µM to reach half-maximal inhibition (IC50).

`COc1ccc([C@@H]2[C@H]3C[C@H]4[C@@H]5CC[C@H]6CC(=O)CC[C@]6(C)[C@H]5CC[C@]4(C)C3=NN2c2ccccc2)cc1` had an IC50 of 4.16 µM.

For the compound `C[C@]12CCC(=O)C[C@@H]1CC[C@@H]1[C@@H]2CC[C@]2(C)C3=NN[C@H](c4ccccc4)[C@H]3C[C@@H]12`, inhibition was half-maximal at 5.24 µM (IC50).

As for `CCC(=O)N1N=C2[C@H](C[C@H]3[C@@H]4CC[C@H]5C[C@@H](OC(=O)C(F)(F)F)CC[C@]5(C)[C@H]4CC[C@]23C)[C@H]1c1ccc(OC)cc1`, the midpoint of inhibition, the IC50, lay at 6.61 µM.

`COc1ccc([C@@H]2[C@H]3C[C@H]4[C@@H]5CC[C@H]6C[C@@H](OC(=O)C(F)(F)F)CC[C@]6(C)[C@H]5CC[C@]4(C)C3=NN2C)cc1` had an IC50 of 5.78 µM.

Turning to `CC(=O)N1N=C2[C@H](C[C@H]3[C@@H]4CCC5=CC(=O)C=C[C@]5(C)[C@H]4CC[C@]23C)[C@H]1c1ccccc1`, the IC50 was 2.88 µM.

As for `COc1ccc([C@@H]2[C@H]3C[C@H]4[C@@H]5CC[C@H]6C[C@@H](OC(=O)C(F)(F)F)CC[C@]6(C)[C@H]5CC[C@]4(C)C3=NN2c2ccccc2)cc1`, half-maximal inhibition (IC50) required 5.45 µM.

With `C[C@]12CC[C@H](OC(=O)C(F)(F)F)C[C@@H]1CC[C@@H]1[C@@H]2CC[C@]2(C)C3=NN(c4ccccc4)[C@H](c4ccccc4)[C@H]3C[C@@H]12`, the IC50 was 5.68 µM.

For `CC(=O)N1N=C2[C@H](C[C@H]3[C@@H]4CC[C@H]5CC(=O)CC[C@]5(C)[C@H]4CC[C@]23C)[C@H]1c1ccccc1`, the IC50 was 4.91 µM.

As for `CCC(=O)N1N=C2[C@H](C[C@H]3[C@@H]4CC[C@H]5C[C@@H](OC(=O)C(F)(F)F)CC[C@]5(C)[C@H]4CC[C@]23C)[C@H]1c1ccccc1`, the midpoint of inhibition, the IC50, lay at 6.71 µM.

As to `C[C@]12CC[C@H](O)C[C@@H]1CC[C@@H]1[C@@H]2CC[C@]2(C)C3=NN(c4ccccc4)[C@H](c4ccccc4)[C@H]3C[C@@H]12`, the IC50 is 6.01 µM.

Consider `CN1N=C2[C@H](C[C@H]3[C@@H]4CC[C@H]5C[C@@H](O)CC[C@]5(C)[C@H]4CC[C@]23C)[C@H]1c1ccccc1`, for which 6.34 µM corresponded to half-maximal inhibition (IC50).

Consider `C/C=C1\CC[C@@]2(C)[C@@H](CC[C@@H]3[C@@H]2CC[C@]2(C)C4=NN(C)[C@H](c5ccccc5)[C@H]4C[C@@H]32)C1`, for which half-maximal inhibition (IC50) required 3.51 µM.

The compound `CN1N=C2[C@H](C[C@H]3[C@@H]4CC[C@H]5CC(=O)CC[C@]5(C)[C@H]4CC[C@]23C)[C@H]1c1ccccc1` gave an IC50 of 4.78 µM.

The compound `COc1ccc([C@@H]2[C@H]3C[C@H]4[C@@H]5CC[C@H]6C[C@@H](OC(=O)C(F)(F)F)CC[C@]6(C)[C@H]5CC[C@]4(C)C3=NN2C(C)=O)cc1` had an IC50 of 6.46 µM.

Turning to `C[C@]12C=CC(=O)C=C1CC[C@@H]1[C@@H]2CC[C@]2(C)C(=O)C(Br)C[C@@H]12` (stereo partly specified), the IC50 was 13.2 µM.

For the compound `COc1ccc([C@H]2NN=C3[C@@H]2C[C@H]2[C@@H]4CC[C@H]5C[C@@H](O)CC[C@]5(C)[C@H]4CC[C@]32C)cc1`, the IC50 is 6.82 µM.

For the compound `CN1N=C2[C@H](C[C@H]3[C@@H]4CC[C@H]5C[C@@H](OC(=O)C(F)(F)F)CC[C@]5(C)[C@H]4CC[C@]23C)[C@H]1c1ccccc1`, the IC50 was 5.81 µM.

Regarding `COc1ccc([C@@H]2[C@H]3C[C@H]4[C@@H]5CC[C@H]6C[C@@H](O)CC[C@]6(C)[C@H]5CC[C@]4(C)C3=NN2c2ccccc2)cc1`, the IC50 is 5.92 µM.

On to `CC(=O)O[C@H]1[C@@H](n2ccnc2)C[C@H]2[C@@H]3CC=C4C[C@@H](N5CCCC5)CC[C@]4(C)[C@H]3CC[C@@]21C`, for which the IC50 was 4.9 µM.

Regarding `C[C@]12CC[C@H](O)C[C@@H]1CC[C@@H]1[C@@H]2CC[C@]2(C)C3=NN[C@H](c4ccccc4)[C@H]3C[C@@H]12`, the IC50 was 6.9 µM.

With `COc1ccc([C@@H]2[C@H]3C[C@H]4[C@@H]5CCC6=CC(=O)C=C[C@]6(C)[C@H]5CC[C@]4(C)C3=NN2C(C)=O)cc1`, the IC50 is 2.65 µM.

Compound `COc1ccc([C@H]2NN=C3[C@@H]2C[C@H]2[C@@H]4CC[C@H]5CC(=O)CC[C@]5(C)[C@H]4CC[C@]32C)cc1` gave an IC50 of 4.88 µM.

For the compound `C[C@]12C=CC(=O)C=C1CC[C@@H]1[C@@H]2CC[C@]2(C)C3=NN[C@H](c4ccccc4)[C@H]3C[C@@H]12`, 3.01 µM corresponded to half-maximal inhibition (IC50).

`C/C=C1\CC[C@@]2(C)[C@@H](CC[C@@H]3[C@@H]2CC[C@]2(C)C4=NN(C)[C@H](c5ccc(OC)cc5)[C@H]4C[C@@H]32)C1` gave an IC50 of 3.4 µM.

The compound `COc1ccc([C@H]2NN=C3[C@@H]2C[C@H]2[C@@H]4CCC5=CC(=O)C=C[C@]5(C)[C@H]4CC[C@]32C)cc1` gave an IC50 of 2.91 µM.

For the compound `C/C=C1\CC[C@@]2(C)[C@@H](CC[C@@H]3[C@@H]2CC[C@]2(C)C4=NN(c5ccccc5)[C@H](c5ccccc5)[C@H]4C[C@@H]32)C1`, half-maximal inhibition (IC50) required 3.34 µM.

The compound `COc1ccc([C@@H]2[C@H]3C[C@H]4[C@@H]5CC[C@H]6CC(=O)CC[C@]6(C)[C@H]5CC[C@]4(C)C3=NN2C(C)=O)cc1` had an IC50 of 4.89 µM.

Take `C/C=C1\CC[C@@]2(C)[C@@H](CC[C@@H]3[C@@H]2CC[C@]2(C)C4=NN(c5ccccc5)[C@H](c5ccc(OC)cc5)[C@H]4C[C@@H]32)C1`: 3.23 µM corresponded to half-maximal inhibition (IC50).

Compound `C[C@]12CCC(=O)C[C@@H]1CC[C@@H]1[C@@H]2CC[C@]2(C)C3=NN(c4ccccc4)[C@H](c4ccccc4)[C@H]3C[C@@H]12` gave an IC50 of 4.27 µM.

`C[C@]12CCC(=O)C=C1CC[C@@H]1[C@@H]2CC[C@]2(C)C(=O)C(Br)C[C@@H]12` (stereo partly specified): the IC50 was 2.65 µM.

Compound `COc1ccc([C@@H]2[C@H]3C[C@H]4[C@@H]5CC[C@H]6C[C@@H](O)CC[C@]6(C)[C@H]5CC[C@]4(C)C3=NN2C)cc1` had an IC50 of 6.12 µM.

Compound `COc1ccc([C@@H]2[C@H]3C[C@H]4[C@@H]5CC[C@H]6CC(=O)CC[C@]6(C)[C@H]5CC[C@]4(C)C3=NN2C)cc1` had an IC50 of 4.56 µM.
